Assay results reported in patent US11666562B2, “Ilaprazole for inhibiting the release of enveloped viruses from cells” (Northwestern University, priority 2020, dated 2023).
“Also recorded” adds a separate entry of the source.

Tests used:
HSV-1 = experiment: Transmission electron microscopy of HSV-1 infected Vero cells, location of virus particles; type: cell-based, Herpes simplex virus-1 (Kos strain); conditions: HSV-1, 18 μM ilaprazole, 24 h
Procedure: FIG. 4. Inhibitory effect of Ilaprazole on HSV-2 and HSV-1 production. Vero cells infected with HSV-2 or HSV-1 at MOI of 0.1 and examined by transmission electron microscopy 24 h later. HSV-2 infected untreated cells (A & B) and cells treated with 18 μM ilaprazole (C & D). HSV-1 infected untreated cells (E & F) and cells treated with 18 μM ilaprazole (G & H). Eighty cells where virus particles were observed were examined. In the presence of ilaprazole, we observe no or very few particles in the cytoplasm. Treated cells also have an accumulation of electron dense material and particles associated with them. In untreated HSV-2 infected cells, we observed an average of 120 particles ranging from 28-204 […], and an average of 16 particles ranging from 10-22 in the nucleus. In treated HSV-2 infected cells, we observed 0 particles in the cytoplasm and an average of 31 particles ranging from 9-56 in the nucleus. In untreated HSV-1 infected cells we observed an average of 135 particles ranging from 12-152 in the cytoplasm, and an average of 35 particles ranging from 10-66 in the nucleus. In treated HSV-1 infected cells, we observed 0 particles in the cytoplasm and an average of 43 particles ranging from 15-166 in the nucleus. Arrows point to virus particles. Nuc, nucleus. Cyt, cytoplasm.
We next carried out a transmission electron microscopic examination of cells infected with HSV-2 at a MOI 0.1 in the presence and absence of 18 μM ilaprazole to determine if this drug causes the accumulation of virus particles in the nucleus of cells similar to tenatoprazole. […] In both heavily infected cells (FIGS. 4A & C) and mildly infected cells (FIGS. 4B & D), treatment lead to particles being detected in the nucleus and arrayed along the nuclear membrane but lacking in the cytosol. […] The lower total infectious virus detected in Table 3 (FIG. 7) is consistent with blockage of the virus passaging out of the nucleus into the cytoplasm where membranes are exchanged and virus becomes infectious. […]

DHPH = experiment: FTS assay against unrelated protein DHPH; type: binding, human
Description: FIG. 1. Thermal shift data of Tsg101 by lead compound Tenatoprazole (N16). […] (B) Thermal shift data of three human proteins, DHPH, ENO1, and MEK4 not related to Tsg101 by lead compound tenatoprazole. […] (C) The addition of DTT abolishes the Tm shift in the FTS assay, consistent with prazole compounds forming a disulfide bond to Tsg101. Rabe: Rabeprazole, Ila: Ilaprazole, Tenato: tenatoprazole, Panto: pantoprazole, ref: reference.
This specific binding is consistent with a previous NMR structure in which tenatoprazole forms a covalent disulfide bond to Cys73 in the UEV domain of the protein (5). This disulfide bond formation can be prevented by including the reducing agent DTT in the assay (FIG. 1C). The addition of DTT abolished the Tsg101-UEV Tm shift caused by the prazoles. […]
Fluorescence thermal shift (FTS) screening to identify small molecule binding to Tsg101-UEV. […] Discovery of small molecule binding to target protein utilizes the observation that ligand binding affects protein thermal stability, and therefore can be detected through a shift in the protein's thermal denaturation (melting) temperature (Tm). […] A fluorescence dye Sypro-Orange (Invitrogen) was used for assay detection. The dye is excited at 473 nm and has a fluorescence emission at 610 nm. […] Fluorescence was detected on a real-time PCR machine CFX384 (Bio-Rad Laboratories).

SMILES | Average number of virus particles in the nucleus (HSV-1) [particles] | Range of number of virus particles in the nucleus (HSV-1) | Virus particles in the cytoplasm (HSV-1) [particles] | Effect on thermal stability (Tm shift) of DHPH (DHPH)
COc1ccnc(C[S+]([O-])c2nc3ccc(-n4cccc4)cc3[nH]2)c1C (stereo not shown) [Ilaprazole, 2-[(4-methoxy-3-methylpyridin-2-yl)methylsulfinyl]-6-pyrrol-1-yl-1H-benzimidazole] | 43 | 15-166 particles | 0 | –
COc1ccc2[nH]c([S+]([O-])Cc3ncc(C)c(OC)c3C)nc2n1 (stereo not shown) [Tenatoprazole] | – | – | – | negligible; also recorded: did not observe a Tm shift
